We go through 13 compounds from patent US20240092779A1, “USP1 INHIBITORS AND USES THEREOF” (Zentaur Therapeutics USA Inc., priority 2022, published 2024).

The structures appear in SMILES notation. Some results are limits rather than exact numbers.

In the first experiment the target is T1, recombinant USP1/UAF1 enzyme complex (Homo sapiens, UniProt O94782).
T1 construct: purchased Biortus
T1 sequence (O94782 whole entry): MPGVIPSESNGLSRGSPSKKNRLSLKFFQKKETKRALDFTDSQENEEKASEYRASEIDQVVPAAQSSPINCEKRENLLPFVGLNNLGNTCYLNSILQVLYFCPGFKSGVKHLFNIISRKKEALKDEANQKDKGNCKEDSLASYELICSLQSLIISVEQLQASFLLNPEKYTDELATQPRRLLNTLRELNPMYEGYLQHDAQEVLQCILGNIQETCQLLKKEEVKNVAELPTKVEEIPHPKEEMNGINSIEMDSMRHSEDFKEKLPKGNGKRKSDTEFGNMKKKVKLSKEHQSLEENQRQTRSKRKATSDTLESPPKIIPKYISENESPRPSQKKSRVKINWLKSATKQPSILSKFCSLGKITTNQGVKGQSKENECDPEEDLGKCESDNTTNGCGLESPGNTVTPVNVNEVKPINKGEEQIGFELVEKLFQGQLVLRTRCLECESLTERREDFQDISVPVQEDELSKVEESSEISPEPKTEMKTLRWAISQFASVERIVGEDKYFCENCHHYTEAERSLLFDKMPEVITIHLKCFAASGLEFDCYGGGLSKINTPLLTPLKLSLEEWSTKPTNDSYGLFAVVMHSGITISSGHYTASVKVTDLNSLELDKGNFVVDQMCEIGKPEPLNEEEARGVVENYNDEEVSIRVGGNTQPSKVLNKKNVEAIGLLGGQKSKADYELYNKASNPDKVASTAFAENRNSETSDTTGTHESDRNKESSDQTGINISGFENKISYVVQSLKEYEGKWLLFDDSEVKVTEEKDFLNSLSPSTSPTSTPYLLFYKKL
T1 sequence (Q8TAF3 whole entry partner): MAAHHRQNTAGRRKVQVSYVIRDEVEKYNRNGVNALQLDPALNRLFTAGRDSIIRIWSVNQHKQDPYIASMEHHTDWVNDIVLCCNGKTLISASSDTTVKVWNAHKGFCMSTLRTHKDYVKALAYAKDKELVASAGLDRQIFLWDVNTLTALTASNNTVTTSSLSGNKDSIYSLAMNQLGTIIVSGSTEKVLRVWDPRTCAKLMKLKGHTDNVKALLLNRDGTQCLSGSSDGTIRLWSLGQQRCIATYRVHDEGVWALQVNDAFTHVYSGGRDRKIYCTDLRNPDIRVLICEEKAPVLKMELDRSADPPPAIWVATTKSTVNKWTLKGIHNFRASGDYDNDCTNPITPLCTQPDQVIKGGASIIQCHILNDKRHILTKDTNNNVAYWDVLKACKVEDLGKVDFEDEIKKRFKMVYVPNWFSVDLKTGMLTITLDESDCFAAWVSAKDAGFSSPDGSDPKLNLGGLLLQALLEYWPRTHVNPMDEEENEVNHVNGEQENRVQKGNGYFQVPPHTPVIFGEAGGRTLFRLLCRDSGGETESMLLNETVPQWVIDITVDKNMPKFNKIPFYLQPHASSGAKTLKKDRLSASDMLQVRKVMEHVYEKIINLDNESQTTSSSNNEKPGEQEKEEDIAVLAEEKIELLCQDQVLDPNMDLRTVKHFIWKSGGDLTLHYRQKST
Description: Enzyme assay: deubiquitinase fluorometric assay with ubiquitin-Rhodamine substrate. The experiment is classed as biochemical. The settings on record: USP1/UAF1, Ub-Rho110 substrate, 2 hours preincubation, 1 hour reaction. Put shortly: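 IC50 derived by 4-parameter logistic fitting of Ex 485/Em 535 fluorescence after Ub-Rho110 (50 nM) cleavage by 0.004 nM USP1/UAF1 complex. Enzyme and compounds (10-point series, 10 μM–0.5 nM) were preincubated 2 h at room temperature; substrate reaction then ran 1 h before citric acid stop.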
Take `COc1ncnc(C2CC2)c1-c1ncc2ccc(=O)n(Cc3ccc(-c4nc(C(F)(F)F)cn4C(C)C)cc3)c2c1F` [Compound I-27, 7-(4-cyclopropyl-6-methoxypyrimidin-5-yl)-8-fluoro-1-({4-[1-isopropyl-4-(trifluoromethyl)imidazol-2-yl]phenyl}methyl)-1,6-naphthyridin-2-one]: the IC50 (usually the concentration that gives 50% inhibition) fell in the range of 0.01 to 0.1 µM.

In the case of `COc1ncnc(C2CC2)c1-c1ncc2ccc(=O)n(Cc3ccc(-c4cccc(C(F)(F)F)n4)cc3)c2n1` [Compound I-36, 2-(4-cyclopropyl-6-methoxypyrimidin-5-yl)-8-({4-[6-(trifluoromethyl)pyridin-2-yl]phenyl}methyl)pyrido[2,3-d]pyrimidin-7-one], the IC50 fell in the range of 0.01 to 0.1 µM.

Another experiment relates to HCC1806 Ub-PCNA (USP1). The experiment is described as follows: USP1 Western Blot Protocol (HCC1806 Ub-PCNA). The experiment is classed as cell-based. As to conditions: Homo sapiens, HCC1806 cells, 4 hours. The method, boiled down:
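HCC1806 cells seeded overnight, then treated 4 h at 37 °C with a 5-point, 4-fold dilution series (0.1% DMSO). Lysates immunoblotted for Ub-PCNA with fluorescent detection; inhibition expressed as % vehicle from Ub-PCNA upregulation, IC50 by four-parameter logistic fit.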
The compound `COc1ncnc(C2CC2)c1-c1ncc2ccc(=O)n(Cc3ccc(-c4nc(C(F)(F)F)cn4C(C)C)cc3)c2c1F` [Compound I-27, 7-(4-cyclopropyl-6-methoxypyrimidin-5-yl)-8-fluoro-1-({4-[1-isopropyl-4-(trifluoromethyl)imidazol-2-yl]phenyl}methyl)-1,6-naphthyridin-2-one] registered an IC50 of 0.01 to 0.1 µM.

`COc1ncnc(C2CC2)c1-c1ncc2ccc(=O)n(Cc3ccc(-c4cccc(C(F)(F)F)n4)cc3)c2n1` [Compound I-36, 2-(4-cyclopropyl-6-methoxypyrimidin-5-yl)-8-({4-[6-(trifluoromethyl)pyridin-2-yl]phenyl}methyl)pyrido[2,3-d]pyrimidin-7-one]: the IC50 was 0.01 to 0.1 µM.

The compound `COc1ncnc(C2CC2)c1-c1nc(C)c2cc(-c3cnn(C)c3)c(=O)n(Cc3ccc(-c4nc(C(F)(F)F)cn4C4CC4)cc3)c2n1` [Compound I-148, 8-({4-[1-Cyclopropyl-4-(Trifluoromethyl)Imidazol-2-Yl]Phenyl}Methyl)-2-(4-Cyclopropyl-6-Methoxypyrimidin-5-Yl)-4-Methyl-6-(1-Methylpyrazol-4-Yl)Pyrido[2,3-d]Pyrimidin-7-One] showed an IC50 below 0.01 µM.

On to `COc1ncnc(C2CC2)c1-c1ncc2cc(-c3cn(C)nn3)c(=O)n(Cc3ccc(-c4nc(C(F)(F)F)cn4C4CC4)cc3)c2n1` [Compound I-150], for which the IC50 is below 0.01 µM.

Compound `COc1ncnc(C2CC2)c1-c1ncc2cc(-c3cnn(C)n3)c(=O)n(Cc3ccc(-c4nc(C(F)(F)F)cn4C4CC4)cc3)c2n1` [Compound I-151] displayed an IC50 below 0.01 µM.

In the case of `COc1cc(Cn2c(=O)ccc3c(C)nc(-c4c(OC)ncnc4C4CC4)nc32)ccc1-c1nc(C(F)(F)F)cn1C1CC1` [Compound I-152, 8-({4-[1-cyclopropyl-4-(trifluoromethyl)imidazo]-2-yl]-3-methoxyphenylmethyl)-2-(4-cyclopropyl-6-methoxypyrimidin-5-yl)-4-methylpyrido[2,3-d]pyrimidin-7-one], the IC50 is below 0.01 µM.

Take `COc1ncnc(C2CC2)c1-c1ncc2cc(-c3ncn(C)n3)c(=O)n(Cc3ccc(-c4nc(C(F)(F)F)cn4C4CC4)cc3)c2n1` [Compound I-153, 8-({4-[1-cyclopropyl-4-(trifluoromethyl)imidazo]-2-yl]phenylmethyl)-2-(4-cyclopropyl-6-methoxypyrimidin-5-yl)-6-(1-methyl-1,2,4-triazol-3-yl)pyrido[2,3-d]pyrimidin-7-one]: the concentration for half-maximal inhibition (IC50) is below 0.01 µM.

Regarding `COc1ncnc(C2CC2)c1-c1ncc2cc(-c3c(C)noc3C)c(=O)n(Cc3ccc(-c4nc(C(F)(F)F)cn4C4CC4)cc3)c2n1` [Compound I-155], the IC50 is below 0.01 µM.

`COc1ncnc(C2CC2)c1-c1ncc2cc(-c3ncnn3C)c(=O)n(Cc3ccc(-c4nc(C(F)(F)F)cn4C4CC4)cc3)c2n1` [Compound I-156] displayed an IC50 of 0.01 to 0.1 µM.

For the compound `COc1ncnc(C2CC2)c1-c1nc(C)c2cc(C3CCN(C)CC3)c(=O)n(Cc3ccc(-c4nc(C(F)(F)F)cn4C4CC4)cc3)c2n1` [Compound I-157, 8-({4-[1-Cyclopropyl-4-(Trifluoromethyl)Imidazol-2-Yl]Phenyl}Methyl)-2-(4-Cyclopropyl-6-Methoxypyrimidin-5-Yl)-4-Methyl-6-(1-Methylpiperidin-4-Yl)Pyrido[2,3-d]Pyrimidin-7-One], the IC50 is below 0.01 µM.

`COc1cc(Cn2c(=O)ccc3c(C)nc(-c4c(OC)ncnc4C4CC4)nc32)cc(F)c1-c1nc(C(F)(F)F)cn1C1CC1` [Compound I-163] yielded an IC50 below 0.01 µM.

`COc1ncnc(C2CC2)c1-c1nc(C)c2cc(-c3ncnn3C)c(=O)n(Cc3ccc(-c4nc(C(F)(F)F)cn4C4CC4)cc3)c2n1` [Compound I-167, 8-({4-[1-Cyclopropyl-4-(Trifluoromethyl)Imidazol-2-Yl]Phenyl}Methyl)-2-(4-Cyclopropyl-6-Methoxypyrimidin-5-Yl)-4-Methyl-6-(2-Methyl-1,2,4-Triazol-3-Yl)Pyrido[2,3-d]Pyrimidin-7-One] registered an IC50 of 0.01 to 0.1 µM.

In the case of `COc1ncnc(C2CC2)c1-c1ncc2cc(-c3ncnn3C)c(=O)n(Cc3ccc(-c4nc(C(F)(F)F)cn4C(C)C)cc3)c2n1` [Compound I-168, 2-(4-Cyclopropyl-6-Methoxypyrimidin-5-Yl)-8-({4-[1-Isopropyl-4-(Trifluoromethyl)Imidazol-2-Yl]Phenyl}Methyl)-6-(2-Methyl-1,2,4-Triazol-3-Yl)Pyrido[2,3-d]Pyrimidin-7-One], the IC50 is below 0.01 µM.
